Experimental data from ChEMBL document CHEMBL1129848, “Synthesis and evaluation of imidazolidinones as nonpeptide HIV-protease inhibitors” (Bioorg Med Chem Lett, 1997).

How the values were obtained:
[1] = target: T1, Human immunodeficiency virus type 1 protease (Human immunodeficiency virus 1, UniProt Q72874); experiment: Inhibition of HIV-protease
[2] = target: T1, Human immunodeficiency virus type 1 protease; experiment: Compound was tested for the inhibitory activity against HIV-protease

Q: With `O=C1N(Cc2cccc(CO)c2)[C@H](CCc2ccccc2)[C@@H](CCc2ccccc2)N1Cc1cccc(CO)c1` as the compound, how does the Ki [1] read?
A: Its Ki is 55 nM.

Q: `O=C1N(Cc2cccc(CO)c2)[C@H]([C@@H](O)Cc2ccccc2)[C@@H](CCc2ccccc2)N1Cc1cccc(CO)c1` was tested. Which Ki [1] did it give?
A: The Ki was 23 nM.

Q: With `O=C1N(Cc2ccc3ccccc3c2)[C@H]([C@@H](F)Cc2ccccc2)[C@@H]([C@@H](F)Cc2ccccc2)N1Cc1ccc2ccccc2c1` as the compound, how does the Ki [1] read?
A: Its Ki is 1400 nM.

Q: For `COC(=O)c1cccc(CN2C(=O)N(Cc3cccc(C(=O)OC)c3)[C@H](CCc3ccccc3)[C@H]2[C@@H](Br)Cc2ccccc2)c1`, which Ki [1] is on record?
A: Its Ki is 920 nM.

Q: For `O=C(Oc1cccc(CN2C(=O)N(Cc3cccc(OC(=O)c4ccccc4)c3)[C@H]([C@@H](F)Cc3ccccc3)[C@H]2[C@@H](F)Cc2ccccc2)c1)c1ccccc1`, which Ki [1] is on record?
A: The Ki was 425 nM.

Q: For `O=C1N(Cc2cccc(O)c2)[C@H]([C@@H](F)Cc2ccccc2)[C@@H]([C@@H](F)Cc2ccccc2)N1Cc1cccc(O)c1`, which Ki [1] is on record?
A: Its Ki is 560 nM.

Q: How did the Ki [1] turn out when `O=C1N(Cc2cccc(CO)c2)[C@H](Cc2ccccc2)CC[C@@H](Cc2ccccc2)N1Cc1cccc(CO)c1` was run?
A: Its Ki is 170 nM.

Q: For `O=C1N(Cc2cccc(CO)c2)[C@H](CCc2ccccc2)C[C@@H](Cc2ccccc2)N1Cc1cccc(CO)c1`, which Ki [1] is on record?
A: Its Ki is 99 nM.

Q: `COC(=O)c1cccc(CN2C(=O)N(Cc3cccc(C(=O)OC)c3)[C@H](CCc3ccccc3)[C@H]2[C@@H](O)Cc2ccccc2)c1` was tested. Which Ki [1] did it give?
A: The Ki was 100 nM.

Q: `C=CCN1C(=O)N(CC=C)[C@H]([C@@H](F)Cc2ccccc2)[C@H]1[C@@H](F)Cc1ccccc1` was tested. Which Ki [1] did it give?
A: Its Ki is 2500 nM.

Q: For `O=C1N(Cc2cccc(CO)c2)[C@H](Cc2ccccc2)[C@@H](Cc2ccccc2)N1Cc1cccc(CO)c1`, which Ki [2] is on record?
A: The Ki was 15500 nM.

Q: How did the Ki [1] turn out when `O=C1N(CC2CC2)[C@H]([C@@H](F)Cc2ccccc2)[C@@H]([C@@H](F)Cc2ccccc2)N1CC1CC1` was run?
A: The Ki was 980 nM.

Q: With `N=C(NO)c1cccc(CN2C(=O)N(Cc3cccc(C(=N)NO)c3)[C@H](CCc3ccccc3)[C@H]2CCc2ccccc2)c1` as the compound, how does the Ki [1] read?
A: Its Ki is 17 nM.

Q: Which Ki [1] does the source give for `COC(=O)c1cccc(CN2C(=O)N(Cc3cccc(C(=O)OC)c3)[C@H](CCc3ccccc3)[C@H]2CCc2ccccc2)c1` here?
A: The Ki was 470 nM.
